Reference: publication PMC8880564, “Design, Synthesis, and Biological Evaluation of a Novel VEGFR-2 Inhibitor Based on a 1,2,5-Oxadiazole-2-Oxide Scaffold with MAPK Signaling Pathway Inhibition” (Pharmaceuticals, 2022)

What was measured:
HepG2 cells [1] = experiment: Intracellular measurement of NO by DAF-FM diacetate flow cytometry; type: cell-based, human; details: HepG2, 11 µM, 1 h, DAF-FM DA; DMSO 0.1%
Method: The NO-releasing properties of 12b were evaluated by measuring the level of intracellular NO by flow cytometry, using a cell-permeable and photo-stable NO fluorescent indicator, 3-Amino-4-aminomethyl-2’,7’-difluorofluorescein diacetate (DAF-FM DA), with a detection limit of ~3 nM. DAF-FM diacetate penetrates the cells and is deacetylated by esterase enzyme to yield a non-fluorescent dye, DAF-FM, which, upon reaction with NO, produces a fluorescent benzotriazole product. Compound 12b was efficiently able to increase the production of NO in the treated cells (9.9% vs. 0.1% in DMSO-treated cells; Figure 9). Furthermore, compound 12b increased NO production as efficiently as the positive control reference drug JS-k.
HepG2 cells were collected, and the number was adjusted at 10^6 cells/test, and then they were stained with 5 µM DAF-FM™ diacetate (Invitrogen, Cat. No. D-23844) for 60 min at 37 °C and 5% CO2. After that, the stained cells were washed to remove the excess probe, and then were re-incubated for another 30 min. Following that, the stained cells were treated either with 12b (5.5 or 11 µM) or JS-K as a positive nitric oxide donor or DMSO as a negative control for another 1 h. The fluorescence was detected by flow cytometry using the FITC detection system in a BD flow Cytometer.

A2780CP = experiment: MTT cell viability assay; type: cell-based; details: Homo sapiens, A2780C/P, Ovarian, 48 h, ± SD of triplicates
Method: (§1) In addition, the morphological changes in 12b-treated cancer cell lines at concentrations of 6.25 and 12.50 µM are shown in Figure 6.
(§2) According to the procedures of Skehan et al. (with minor modifications), the cancer or normal cells were seeded in a 96-well plate (100 µL/well). After overnight incubation at 37 °C and 5% CO2, the cells were incubated with 50 µM of each tested compound or DMSO (0.5% v/v). After 48 h of incubation, MTT (3-(4,5-dimethylthiazoyl)-2,5-diphenyl-tetrazolium bromide) 5 mg/mL Phosphate-Buffered Saline (PBS) was added, and the plate was incubated for 4 h. After that, acidified sodium dodecyl sulfate (SDS) solution (10% SDS containing 0.01N HCl in 1× PBS) was used to solubilize formazan crystals. The absorbance was measured after 14 h of incubation at λ570–630 nm by a Biotek plate reader (Gen5™).

HepG2 = experiment: MTT cell viability assay; type: cell-based; details: Homo sapiens, Liver, 48 h, ± SD of triplicates
Method: as §1, §2

A2780 = experiment: MTT cell viability assay; type: cell-based; details: Homo sapiens, Ovarian, 48 h, ± SD of triplicates
Method: as §1, §2

MCF-7 = experiment: MTT cell viability assay; type: cell-based; details: Homo sapiens, MCF7, Breast, 48 h, ± SD of triplicates
Method: as §1, §2

MDA-MB-231 = experiment: MTT cell viability assay; type: cell-based; details: Homo sapiens, Breast, 48 h, ± SD of triplicates
Method: as §1, §2

SKOV-3 = experiment: MTT cell viability assay; type: cell-based; details: Homo sapiens, SK-OV-3, Ovarian, 48 h, ± SD of triplicates
Method: as §1, §2

HT-29 = experiment: MTT cell viability assay; type: cell-based; details: Homo sapiens, Colon, 48 h, ± SD of triplicates
Method: as §1, §2

HepG2 cells [2] = experiment: Apoptosis analysis, Annexin-V/PI flow cytometry; type: cell-based, human; details: HepG2, 5.5 or 11 µM, 24 h
Method: The mechanism of action of 12b was investigated by evaluating its effectiveness in modulating the cell cycle and induction of apoptosis.
Briefly, HepG2 cells (10^6 cells/mL) were treated either with 12b (5.5 or 11 µM) or with DMSO for 24 h, and then were collected after trypsinization and washed twice with 1× PBS. The induction of apoptosis was analyzed by staining cells with PE-Annexin-V [85] in the presence of PI and analyzed using the BD FACS Calibur Flow cytometer.

p38 = experiment: ELISA assay in HepG-2 cells; type: cell-based, human; details: HepG-2, 11 µM
Method: (§3) The mitogen-activated protein kinase (MAPK) pathway is considered to be a key player in the gene expression of survival, proliferative, and anti-apoptotic proteins. Aberrant dysregulation in the MAPK pathway activity has been linked to the overall poor prognosis in various cancers. […] Additionally, compound 12b was further tested against p38, MKK3, and JNK using ELISA assay protocols at a concentration of 11 µM. […] The overexpression of JNK might have contributed to the NO released from 12b and reactive oxygen species (ROS). In summary, the novel anticancer lead compound 12b is worthy of further investigation and activity improvement.
(§4) The p38, MKK3, and JNK assays were performed according to the manufacturer’s ELISA assay protocols. Briefly, a 96-well plate was seeded with a cell density of 10,000–40,000 cells/well. Then, 50 µL of compound 12b or control (DMSO) was added to appropriate wells in triplicate. Following this, 50 µL of the antibody cocktail (in case of p38; Cat. No. ab221012, Abcam (Waltham, MA, USA) and MKK3; Cat. No. PEL-MKK3-S189-T, RayBiotech, Peachtree Corners, GA, USA) was added to each well. The plate was then sealed and incubated for 1–2.5 h at room temperature with gentle shaking. Each well was washed with 1X Wash Buffer PT (4 × 350 µL), and then the plate was inverted and tapped gently against clean paper towels to remove excess liquid. In case of JNK (Cat. No. ab176662, Abcam, Waltham, MA, USA), this washing step was applied before and after adding 1X rabbit […] antibody, then 100 µL of HRP-conjugated anti-rabbit IgG solution was added and the plate was incubated for 1 h at room temperature with gentle shaking followed by washing (4 × 350 µL). After that, 100 µL of TMB Substrate was added to each well and incubated for 15–30 min in the dark with gentle shaking. Finally, 100 µL of Stop Solution was added to each well and the plate was shaken for 1 min to mix well. The OD was recorded at 450 nm.

JNK = experiment: ELISA assay in HepG-2 cells; type: cell-based, human; details: HepG-2, 11 µM
Method: as §3, §4

MKK3 = experiment: ELISA assay in HepG-2 cells; type: cell-based, human; details: HepG-2, 11 µM
Method: as §3, §4

[O-][n+]1onc(-c2ccccc2)c1CNc1ccc(Nc2nc(C(F)(F)F)nc3c2cnn3-c2ccc(Br)cc2)cc1 [12b, 3-(((4-((1-(4-bromophenyl)-6-(trifluoromethyl)-1H-pyrazolo[3,4-d]pyrimidin-4-yl)amino)phenyl)amino)methyl)-4-phenyl-1,2,5-oxadiazole 2-oxide]
intracellular NO production (P2) (HepG2 cells [1]): 9.9%
IC50 (A2780CP): 11.6 ± 0.1 µM
IC50 (HepG2): 11.5 ± 0.5 µM
IC50 (A2780): 15 ± 0.15 µM
IC50 (MCF-7): 22.3 ± 0.3 µM
IC50 (MDA-MB-231): 13 ± 0.2 µM
IC50 (SKOV-3): 18.6 ± 0.2 µM
IC50 (HT-29): 15 ± 0.24 µM
induction of apoptosis (HepG2 cells [2]): induction of apoptotic pathways
relative expression of p38 (p38): low expression
relative expression of JNK (JNK): overexpressed
relative expression of MKK3 (MKK3): low expression
